Measured values: patent US20240208909A1, “SUBSTITUTED QUINOLINE DERIVATIVES HAVING SOS1 INHIBITION ACTIVITIES AND USES THEREOF” (Accutar Biotechnology Inc., priority 2022, published 2024)

Tests used:
K562 cells = experiment: Cell growth inhibition of K562 cells (CellTiter-Glo); format: cell-based; details: Homo sapiens, 120 h, 5 days
Experimental: Example 24: Cell Growth Inhibition of K562 Cells
K562 cells were obtained from American Type Culture Collection (ATCC). For cell growth assay, K562 cells were seeded in 96-well plates at 1000 cells/well in 90 μl of RPM11640 growth medium containing 10% FBS and 1% Penicillin Streptomycin, and then incubated at 37° C. for 1 hour. The test compound was administered to the cells by using 1000× compound stock solution prepared in DMSO at various concentrations. 1000× compound stock solution was first diluted in culturing medium to 10×, then 10 uL compound medium was added to each well in the cell plates. After administration of the compound, the cells were then incubated at 37° C. for 5 days. Upon completion, the plates were equilibrated at room temperature for approximately 10 minutes. 100 ul of CellTiter-Glo® Reagent (Promega) was added to each well. The plates were then incubated at room temperature for 10 minutes and luminescence was recorded by EnSpire plate reader (PerkinElmer).

[1] = test system: Phospho-ERK1/2 in DLD1 cells; experiment: Phospho-ERK1/2 expression inhibition in DLD1 cells; format: cell-based; details: Homo sapiens, DLD-1, 4 hours, read-out: DLD1 pERK IC50
Experimental: Example 23: Phospho-ERK1/2 Expression Inhibition in DLD1 Cells
DLD1 cells were obtained from American Type Culture Collection (ATCC). DLD1 cells were plated in 96-well plates (VWR #10062-900, or Corning #3904) in 90 uL culture medium at a density of 15,000 cells/well in the RPM11640 growth medium containing 10% FBS and 1% Penicillin Streptomycin, and then incubated at 37° C. overnight. The following day, the test compound was administered to the cells by using 1000×x compound stock solution prepared in DMSO at various concentrations. 1000× compound stock solution was first diluted in culturing medium to 10×, then 10 uL compound medium was added to each well in the cell plates. After administration of the compound, the cells were then incubated at 37° C. for 4 hours. Upon completion, the cells were washed with PBS briefly. 150 uL/well of 4% formaldehyde was added and the plates were incubated at room temperature for 20 mins. The cells were washed with PBS briefly, and permeabilized with 150 uL/well of ice cold 100% methanol for 10 mins. The cells were washed with PBS briefly and blocked with 100 uL/well LI-COR blocking buffer for 1 hr at room temperature with gentle shaking. The cells were incubated overnight at 4° C. with 50 uL primary antibody rabbit anti-Phospho-ERK1/2 (1: 500, Cell Signaling, #4370) diluted in Intercept Blocking Buffer (LI-COR, #927-60001) containing 0.1% Tween 20. The next day, the cells were washed with 200 uL PBS containing 0.1% Tween 20, 5×5 mins at room temperature with gentle shaking, and incubated with 50 uL secondary antibody, IRDye® 800CW Goat anti-Rabbit IgG (LI-COR, #926-32211), 1:1000, in LI-COR blocking buffer with 0.2% Tween 20 for 1 hr at room temperature with gentle shaking. The cells were washed with 200 uL PBS containing 0.1% Tween 20, 5×5 mins at room temperature with gentle shaking. The cells were washed with PBS for 5 mins. 100 uL fresh PBS was added to each well and the plates were imaged on a LI-COR Odyssey CLX plate reader.

SOS1/KRAS-G12D = SOS1/KRAS-G12D (Homo sapiens (Human), UniProt Q07889); experiment: SOS1/KRAS-G12D binding inhibition assay (AlphaScreen); details: GST-SOS1 and 6*His KRAS-G12D, read-out: KrasG12D/SOS1 binding IC50
SOS1/KRAS-G12D, sequence (Q07889 564-1049 limits assumed): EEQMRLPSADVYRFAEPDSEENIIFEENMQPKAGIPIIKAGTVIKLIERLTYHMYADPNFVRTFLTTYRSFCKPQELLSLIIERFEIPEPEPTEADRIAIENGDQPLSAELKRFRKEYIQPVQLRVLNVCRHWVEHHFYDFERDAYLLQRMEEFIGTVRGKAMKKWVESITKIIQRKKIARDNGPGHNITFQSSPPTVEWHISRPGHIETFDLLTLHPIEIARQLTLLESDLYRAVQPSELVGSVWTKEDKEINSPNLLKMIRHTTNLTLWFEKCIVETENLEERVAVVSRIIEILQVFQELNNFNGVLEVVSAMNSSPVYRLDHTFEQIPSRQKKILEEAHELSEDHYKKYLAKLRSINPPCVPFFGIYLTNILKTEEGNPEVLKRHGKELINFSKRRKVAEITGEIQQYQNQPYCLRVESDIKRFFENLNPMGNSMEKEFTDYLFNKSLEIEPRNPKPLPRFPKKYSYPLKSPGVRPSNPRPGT
Experimental: Example 22: SOS1/KRAS-G12D Binding Inhibition Assay
SOS1 binding affinity of candidate compounds was measured by monitoring the interaction of SOS1 with KRAS-G12D in the presence of the test compound. Briefly, 5 nM GST tagged SOS1 proteins (final concentration) were pre-incubated with 50 nM 6*His tagged KRAS-G12D proteins (final concentration) in an assay buffer containing 10 mM HEPES, pH 7.4, 150 mM NaCl, 1 mM DTT, 5 mM MgCl2, 0.1% Tween-20, and 0.05% BSA for 30 minutes. The test compounds in 2% DMSO (final concentration) at various concentrations were then added to the reaction mixture and incubated for another 30 minutes at 4° C. 5 ug/ml GSH AlphaScreen donor beads (PerkinElmer, 6765300) and 5 ug/ml nickel chelate (Ni-NTA) AlphaScreen acceptor beads (PerkinElmer, 6760619C) (final concentrations) were then added to the mixture. After an incubation of 2 hours at 4° C., the fluorescent signals were obtained on the EnVision® 2105 Multilabel Plate Reader (PerkinElmer).
Raw AlphaScreen data were converted to a percentage of inhibition (relative to DMSO) using the following equations: • a) For a given test compound concentration X:
Signal (X)=Signal (SOS1 & KRAS-G12D & compound)-Signal (buffer & KRAS-G12D & compound)
Percentage of inhibition at concentration X=[1−Signal (X)/Signal (DMSO)]*100% b)
The IC50 values were determined by nonlinear regression of plots of [inhibitor] vs. percentage of inhibition with variable slope, analyzed using GraphPad Prism 9.

Row | SMILES | GI50 (K562 cells) [nM] | IC50 [1] [nM] | IC50 (SOS1/KRAS-G12D) [nM]
1 | Cc1cc(N[C@H](C)c2cccc(C(F)(F)F)c2C)c2cc(N3CCNCC3)ccc2n1 [Compound 1, (R)-2-methyl-N-(1-(2-methyl-3-(trifluoromethyl)phenyl)ethyl)-6-(piperazin-1-yl)quinolin-4-amine] | > 500 | > 500 | 10 to 100
2 | Cc1c([C@@H](C)Nc2c(C#N)cnc3ccc(N4CCNCC4)cc23)cccc1C(F)(F)F [Compound 2, (R)-4-((1-(2-methyl-3-(trifluoromethyl)phenyl)ethyl)amino)-6-(piperazin-1-yl)quinoline-3-carbonitrile] | > 500 | – | > 100
3 | Cc1c([C@@H](C)Nc2c(C#N)cnc3ccc(N4CCN(C(=O)C5CCOC5)CC4)cc23)cccc1C(F)(F)F (stereo partly drawn) [Compound 3, 4-(((R)-1-(2-methyl-3-(trifluoromethyl)phenyl)ethyl)amino)-6-(4-(tetrahydrofuran-3-carbonyl)piperazin-1-yl)quinoline-3-carbonitrile] | > 500 | > 500 | > 100
4 | Cc1cc(N[C@H](C)c2cccc(C(F)(F)F)c2C)c2cc(N3CCN(C(=O)C4CCOC4)CC3)ccc2n1 (stereo partly drawn) [Compound 4, (4-(2-methyl-4-(((R)-1-(2-methyl-3-(trifluoromethyl)phenyl)ethyl)amino)quinolin-6-yl)piperazin-1-yl)(tetrahydrofuran-3-yl)methanone] | 100 to 500 | > 500 | 10 to 100
5 | Cc1c([C@@H](C)Nc2ccnc3ccc(N4CCNCC4)cc23)cccc1C(F)(F)F [Compound 5, (R)-N-(1-(2-methyl-3-(trifluoromethyl)phenyl)ethyl)-6-(piperazin-1-yl)quinolin-4-amine] | > 500 | – | 10 to 100
6 | CC(=O)N[C@@H]1CCN(c2ccc3ncc(C#N)c(N[C@H](C)c4cccc(C(F)F)c4F)c3c2)C1 [Compound 7, N-((R)-1-(3-cyano-4-(((R)-1-(3-(difluoromethyl)-2-fluorophenyl)ethyl)amino)quinolin-6-yl)pyrrolidin-3-yl)acetamide] | > 500 | – | > 100
7 | Cc1c([C@@H](C)Nc2ccnc3ccc(N4CCOCC4)cc23)cccc1C(F)(F)F [Compound 37, (R)-N-(1-(2-methyl-3-(trifluoromethyl)phenyl)ethyl)-6-morpholinoquinolin-4-amine] | 100 to 500 | 150 to 500 | –
8 | CC(=O)N1CCN(c2ccc3nccc(N[C@H](C)c4cccc(C(F)(F)F)c4C)c3c2)[C@H](C)C1 [Compound 67, 1-((R)-3-methyl-4-(4-(((R)-1-(2-methyl-3-(trifluoromethyl)phenyl)ethyl)amino)quinolin-6-yl)piperazin-1-yl)ethan-1-one] | > 500 | > 500 | –
9 | Cc1c([C@@H](C)Nc2ccnc3ccc(N4CCNC[C@H]4C)cc23)cccc1C(F)(F)F [Compound 68, N-((R)-1-(2-methyl-3-(trifluoromethyl)phenyl)ethyl)-6-((R)-2-methylpiperazin-1-yl)quinolin-4-amine] | > 500 | > 500 | –
10 | CC(=O)N1CC[C@@](F)(c2ccc3nccc(N[C@H](C)c4cccc(C(F)F)c4F)c3c2)C1 [Compound 86, 1-((R)-3-(4-(((R)-1-(3-(difluoromethyl)-2-fluorophenyl)ethyl)amino)quinolin-6-yl)-3-fluoropyrrolidin-1-yl)ethan-1-one] | > 500 | – | > 100
11 | [2H]C([2H])([2H])O[C@]1(c2ccc3nccc(N[C@H](C)c4cccc(C(F)F)c4F)c3c2)CCN(C(C)=O)C1 [Compound 93, 1-((S)-3-(4-(((R)-1-(3-(difluoromethyl)-2-fluorophenyl)ethyl)amino)quinolin-6-yl)-3-(methoxy-d3)pyrrolidin-1-yl)ethan-1-one] | ≤ 100 | ≤ 150 | –
12 | [2H]C([2H])([2H])O[C@@]1(c2ccc3nccc(N[C@H](C)c4cccc(C(F)F)c4F)c3c2)CCN(C(C)=O)C1 [Compound 94, 1-((R)-3-(4-(((R)-1-(3-(difluoromethyl)-2-fluorophenyl)ethyl)amino)quinolin-6-yl)-3-(methoxy-d3)pyrrolidin-1-yl)ethan-1-one] | ≤ 100 | ≤ 150 | –
